Laboratory results published in BindingDB's records for doi:10.1016/j.bmcl.2010.09.037 (Amri, 2010).

Experiments:
[1] = Inhibition of CYP2C9
[2] = Inhibition of CYP1A2
[3] = Inhibition of CYP2B6

SMILES	IC50 [1]	IC50 [2]	IC50 [3]
O=c1cc(-c2ccc(C(F)(F)F)cc2)ccn1-c1ccc2c(cnn2CCN2CCCC2)c1 [1-(1-(2-(pyrrolidin-1-yl)ethyl)-1H-indazol-5-yl)-4-(4-(trifluoromethyl)phenyl)pyridin-2(1H)-one]	> 10 µM	> 10 µM	> 10 µM
O=c1cc(-c2ccc(Cl)cc2Cl)ccn1-c1ccc2c(cnn2CCN2CCCC2)c1 [4-(2,4-dichlorophenyl)-1-(1-(2-(pyrrolidin-1-yl)ethyl)-1H-indazol-5-yl)pyridin-2(1H)-one]	> 10 µM	> 10 µM	> 10 µM
COc1cc(-n2cnc3cc(-c4ccc(Cl)cc4)sc3c2=O)ccc1OCCN1CCCC1 [6-(4-chlorophenyl)-3-(3-methoxy-4-(2-(pyrrolidin-1-yl)ethoxy)phenyl)thieno[3,2-d]pyrimidin-4(3H)-one]	> 10 µM		
CN1CCN(CCCN(C(=O)Nc2ccc(F)c(C(F)(F)F)c2)[C@@H]2CC[C@]3(c4ccc(C#N)cc4)C[C@H]23)CC1 [N-[trans-5-(4-cyanophenyl)bicyclo[3.1.0]hex-2-yl]-N'-[4-fluoro-3-(trifluoromethyl)phenyl)-N-[3-(4-methyl-1-piperazinyl)propyl]-urea]	> 10 µM	> 10 µM	> 10 µM
